Reference: patent US20250297028A1, “TREATMENT OF RENAL CANCER USING A COMBINATION OF AN ANTI-PD-1 ANTIBODY AND ANOTHER ANTI-CANCER AGENT” (BRISTOL-MYERS SQUIBB COMPANY, priority 2014, published 2025)
Where two headings read alike, the source gives them in different places.

Assays:
[1] = test system: renal cell carcinoma (RCC); details: cited from earlier work; for OS (overall survival): phase 3, poor-risk patients with advanced RCC (Hudes et al., 2007)
[2] = test system: murine renal carcinoma (Renca) tumor; assay: Efficacy study in Renca murine RCC tumor model; type: in vivo, mouse; details: for % TGI (tumor growth inhibition) / Objective Responses (ORs): 33 days after implantation; for % TGI (tumor growth inhibition): sunitinib 120 mg/kg QD×14 PO, sorafenib 200 mg/kg QD×14 PO, 4H2 10 mg/kg Q4D×4 IP; for Objective Responses (ORs): responders/8 mice
Excerpt: Female 8-12 weeks old Balb/c and C57/BL6 mice (Harlan Laboratories, Federick, MD) were used in all studies. Mice were housed in sterile microisolator cages and administered sterile food and water ad libitum, unless otherwise specified.
The murine renal carcinoma (Renca) and murine colon adenocarcinoma (CT-26) tumor cell lines were maintained in vitro for less than 10 passages.
Tumor cells were implanted subcutaneously (SC). When the mean tumor volume reached about 100 mm^3, mice were randomized into groups of 8 animals. Vehicle (control), sunitinib (120 mg/kg) or sorafenib (200 mg/kg) was orally administered once daily for 14 days (QD×14, PO). MAb 4H2 was administered at 10 mg/kg every 4 days for a total of 4 treatments (Q4D×4) intraperitoneally (IP). Tumors were measured twice weekly, and the tumor volume was calculated as length×(width^2/2).

[3] = test system: tumor-infiltrating immune cells in Renca tumors; assay: Immune cell infiltration of Renca tumors (immunohistochemistry, flow cytometry); type: in vivo, mouse; details: versus control group
Method: Immunohistochemistry and flow cytometry analyses were used to assess immune cell infiltration of tumors.
Frozen sections were fixed in an acetone/methanol mix and rinsed in phosphate-buffered saline (PBS). Sections were blocked for endogenous peroxidase and the primary antibodies (anti-CD8, anti-CD4, anti-FoxP3, and anti-PD-L1) were added and incubated overnight. Chromogenic development was done using a brown polymer-based detection system (Biocare Medical), with hematoxylin used as a blue counter stain for visualization of cellular nuclei.
Tumor-infiltrating immune cells were isolated and prepared as a single-cell suspension, then stained and analyzed via flow cytometry for expression of T-cell subsets (regulatory and activated) and myeloid cells (i.e., for expression of CD3, CD4, CD8, FoxP3, CD25, and CD69).

PD-1 = molecular target: T1, PD-1 (Homo sapiens, UniProt Q15116); details: 15 subjects, 0.3 to 10 mg/kg, across all doses; cited from earlier work
T1 construct: indicate that PD-1 occupancy appears to be dose-independent in this dose range; endogenous in cells

[4] = dosing up to 10 mg/kg every two weeks; cited from earlier work

T1 sequence (Q15116 25-288): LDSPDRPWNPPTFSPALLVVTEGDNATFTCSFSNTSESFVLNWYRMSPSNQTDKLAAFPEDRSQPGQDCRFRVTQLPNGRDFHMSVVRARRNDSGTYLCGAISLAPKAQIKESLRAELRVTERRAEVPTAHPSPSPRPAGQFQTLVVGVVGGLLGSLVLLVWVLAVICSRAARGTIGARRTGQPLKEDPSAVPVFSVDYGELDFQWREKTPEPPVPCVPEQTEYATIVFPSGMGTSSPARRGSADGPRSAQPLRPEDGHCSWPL

**Q.** Which “improvement in median progression-free survival (PFS) versus placebo” value ([1]; Motzer et al., 2008) does the source give for `CO[C@H]1C[C@@H]2CC[C@@H](C)[C@@](O)(O2)C(=O)C(=O)N2CCCC[C@H]2C(=O)O[C@H]([C@H](C)C[C@@H]2CC[C@@H](OCCO)[C@H](OC)C2)CC(=O)[C@H](C)/C=C(\C)[C@@H](O)[C@@H](OC)C(=O)[C@H](C)C[C@H](C)/C=C/C=C/C=C/1C` [Everolimus] here?
**A.** The value was 2.1 month.

**Q.** What about the OS improvement ([1]; versus placebo (Motzer et al., 2008)) of the same compound?
**A.** Its OS improvement is “no OS improvement”.

**Q.** With `CNC(=O)c1cc(Oc2ccc(NC(=O)Nc3ccc(Cl)c(C(F)(F)F)c3)cc2)ccn1` [Sorafenib] as the compound, how does the “% TGI (tumor growth inhibition)” value [2] read?
**A.** The value was 62%.

**Q.** What about the “activity as monotherapy in Renca model” value ([2]; monotherapy) of the same compound?
**A.** Its value is “active”.

**Q.** What about the “Objective Responses (ORs)” value [2] of the same compound?
**A.** Its value is 0/8.

**Q.** And the “infiltration of CD4+ and CD8+ T cells into tumor (IHC)” value [3]?
**A.** The value was “increased T-cell infiltration into the tumor was not observed”.

**Q.** What about the response rate ([1]; randomized Phase 2, 128 treatment-naïve mRCC subjects (Procopio et al., 2011)) of the same compound?
**A.** The response rate was 15%.

**Q.** For `CCN(CC)CCNC(=O)c1c(C)[nH]c(/C=C2\C(=O)Nc3ccc(F)cc32)c1C` [Sunitinib], which “% TGI (tumor growth inhibition)” value [2] is on record?
**A.** Its value is 85%.

**Q.** And the “Objective Responses (ORs)” value [2]?
**A.** Its value is 0/8.

**Q.** For `CO[C@H]1C[C@@H]2CC[C@@H](C)[C@@](O)(O2)C(=O)C(=O)N2CCCC[C@H]2C(=O)O[C@H]([C@H](C)C[C@@H]2CC[C@@H](OC(=O)C(C)(CO)CO)[C@H](OC)C2)CC(=O)[C@H](C)/C=C(\C)[C@@H](O)[C@@H](OC)C(=O)[C@H](C)C[C@H](C)/C=C/C=C/C=C/1C` [temsirolimus], which “OS (overall survival)” value [1] is on record?
**A.** The value was 10.9 months.

**Q.** Which “OS (overall survival)” value [1] does the source give for IFNα here?
**A.** The value was 7.3 months.

**Q.** Which ORR ([1]; Phase 2 metastatic RCC, cohort A: 3 mg/kg loading dose then 1 mg/kg every 3 wk (Yang et al., 2007)) does the source give for “ipilimumab: fully human, IgG1 monoclonal Ab that blocks the binding of CTLA-4 to its B7 ligands” here?
**A.** The ORR was 5%.

**Q.** And the ORR ([1]; Phase 2 metastatic RCC, cohort B: 3 mg/kg every 3 wk for all doses (Yang et al., 2007))?
**A.** Its ORR is 12.5%.

**Q.** With nivolumab as the compound, how does the ORR ([1]; 0.3 mg/kg, Phase 2 metastatic RCC (Motzer et al., 2014)) read?
**A.** Its ORR is 20%.

**Q.** And the ORR ([1]; 0.3 mg/kg, pretreated with 1-3 prior anti-angiogenic therapies (Choueiri et al., 2014))?
**A.** Its ORR is 9%.

**Q.** And the ORR ([1]; 2 mg/kg, Phase 2 metastatic RCC (Motzer et al., 2014))?
**A.** The ORR was 22%.

**Q.** And the ORR ([1]; 2 mg/kg, pretreated with 1-3 prior anti-angiogenic therapies (Choueiri et al., 2014))?
**A.** Its ORR is 23%.

**Q.** What about the ORR ([1]; 10 mg/kg, Phase 2 metastatic RCC (Motzer et al., 2014)) of the same compound?
**A.** Its ORR is 20%.

**Q.** What about the ORR ([1]; 10 mg/kg, pretreated with 1-3 prior anti-angiogenic therapies (Choueiri et al., 2014)) of the same compound?
**A.** Its ORR is 22%.

**Q.** What about the ORR ([1]; 10 mg/kg, treatment-naïve patients (Choueiri et al., 2014)) of the same compound?
**A.** The ORR was 13%.

**Q.** And the ORR ([1]; nivolumab 1 or 10 mg/kg alone, RCC, Phase 1 (WO 2013/173223))?
**A.** The ORR was 28-31%.

**Q.** And the “mean PD-1 occupancy rate” value (PD-1)?
**A.** The value was 85%.

**Q.** And the “mean plateau PD-1 occupancy” value (PD-1)?
**A.** Its value is 72%.

**Q.** What about the “maximum tolerated dose (MTD), monotherapy” value [4] of the same compound?
**A.** Its value is “without reaching the maximum tolerated does (MTD)”.
